Test results: publication PMC6744417, “ALKBH overexpression in head and neck cancer: potential target for novel anticancer therapy” (Scientific Reports, 2019)
Like-named read-outs stand apart in the source and are kept apart here.

Columns and labels:
BICR18 cells = experiment: Alamar Blue viability assay, BICR18; assay type: cell-based, human; details: 48 h of treatment
Experimental: (§1) Alamar Blue (Invitrogen) viability assay was performed according to manufacturer’s protocol: after 4 h incubation, emission at 590 nm was measured with excitation at 560 nm using a scanning multiwall multimode spectrophotometer (DTX 880, Beckman Coulter). The experiment was carried out at least three times, with three replicates for each inhibitor concentration. […] All the calculations were done using Origin 9.0 software.

EUFA30 cells [1] = experiment: Alamar Blue viability assay, EUFA30; assay type: cell-based, human; details: normal fibroblast cells, 48 h of treatment
Experimental: (§2) Exponentially growing cells at the density of 3 × 10^3 cells/well were seeded onto a 96-well plate, cultured for 18 h followed by the respective treatment of antraquinones or its derivatives in various concentrations or 34 nM RNA interference of ALKBH proteins, and then cultured for a an additional 48 h. Alamar Blue (Invitrogen) viability assay was performed according to manufacturer’s protocol: after 4 h incubation, emission at 590 nm was measured with excitation at 560 nm using a scanning multiwall multimode spectrophotometer (DTX 880, Beckman Coulter). The experiment was carried out at least three times, with three replicates for each inhibitor concentration. After background subtraction, inhibition rates, IC50, values were calculated as the concentration of the component that inhibits cell growth by 50%. All the calculations were done using Origin 9.0 software.

ALKBH3 [2] = molecular target: T1, ALKBH3 (Homo sapiens, UniProt Q96Q83); experiment: In vitro inhibition assay of demethylation activity (HPLC), ALKBH3; assay type: biochemical
T1 construct: made in house
T1 sequence (Q96Q83 1-286): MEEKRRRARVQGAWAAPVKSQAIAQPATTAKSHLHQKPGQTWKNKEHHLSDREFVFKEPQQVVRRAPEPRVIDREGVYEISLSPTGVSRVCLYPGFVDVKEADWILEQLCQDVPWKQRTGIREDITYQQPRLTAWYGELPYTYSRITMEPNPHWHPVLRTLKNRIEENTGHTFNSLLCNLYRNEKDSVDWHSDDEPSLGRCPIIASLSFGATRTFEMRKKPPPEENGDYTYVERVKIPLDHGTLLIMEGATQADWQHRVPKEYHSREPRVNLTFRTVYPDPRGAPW
Experimental: (§3) For EcAlkB, ALKBH3, and FTO, the inhibitory effect was further quantified by measuring inhibition of demethylation activity in vitro (Fig. 6D). […]. The reactions were carried out for 30 min at 37 °C in 20 µl of 50 mM Tris-HCl pH 7.5 with 1 mM DTT, 100 µM Fe(NH4)2(SO4)2, 50 µM 2OG, and 100 nM of AlkB or ALKBH3, 25 µM of substrate, and different concentrations of indicated inhibitors. […]. Modified and unmodified (repaired) products were separated and analyzed on Knauer HPLC system with C18 column (Waters NovaPak). The mobile phase binding buffer (20 mM TEAA) and elution buffer (acetonitrile) were mixed and flown at a rate of 1 ml/min. The detection wavelength was 260 nm.

FTO [3] = molecular target: T2, FTO (Homo sapiens, UniProt Q9C0B1); experiment: FTO N6meA demethylation Chemiluminescent Assay Kit; assay type: biochemical; details: FTO 330 nM; N6meA on RNA; read-out: IC50 (Enzyme: FTO 330nM; Substrate: N6meA)
T2 construct: His; made in house; host or cells: E. coli BL-21
Experimental: To measure the activity of obtained by us FTO protein, Chemiluminescent Assay Kit was used (BPS Bioscience). As a substrate, we used N^6meA modification on RNA. The reactions were carried out according to the manufacturer’s protocol. Chemiluminescence was measured using the plate reader Synergy HT (Bio Tek) with 1 sec of integration time and 100 ms of delay after plate movement.

HeLa cells [4] = experiment: Flow cytometry Annexin V-FITC / propidium iodide, HeLa; assay type: cell-based, human; details: 48 h, untreated control 10.8%
Experimental: (§4) Silencing was performed using the lipofectamine RNAiMAX reagent (Invitrogen) and ready-to-use siRNA mixture (Santa Cruz Biotechnology) composed of at least two different siRNAs targeting the same gene, to knock down ALKBH1, 2, 3, 4, 5, 8, and FTO (Supplementary Table 2). 1 × 10^6 cells were seeded onto a 100 mm diameter dishes. After 24 h of incubation, siRNAs mixtures (with lipofectamine, in OPTI-MEM medium) were added. After 48 h, cells were collected for WB or flow cytometry analysis. For WB analysis, adherent cells were rinsed three times with PBS, scraped, and centrifuged (800 x g, 10 min, 4 °C). Next, cells were re-suspended in 100 μL RIPA buffer with a 1 x mammalian protease inhibitor cocktail (Sigma-Aldrich). The resulting lysates were spun down at 30 130 x g to remove insoluble particles, assayed for protein content using the Bradford assay, and loaded onto the SDS-PAGE at the protein amount of 20 μg per line. The strength of WB signals corresponding to the particular ALKBHs were calculated by densitometry. The expression changes by 30% were considered as significant.
(§5) The Annexin V-FITC apoptosis detection kit (ApoAlert Annexin V-FITC Apoptosis Kit, TaKaRa) was used to detect apoptosis by flow cytometry. Cells were seeded at 6-well plates at concentration of 5 × 10^5 cells/well, cultured for 18 h, and then the tested agent was applied for the indicated periods. Afterward, cells were washed with PBS, resuspended in binding buffer, and anti-Annexin V FITC-conjugated antibody and propidium iodide were added to 100 µl aliquots. The mixtures were incubated for 15 min at room temperature, supplemented with binding buffer to 500 µl, and processed using BD FACSCalibur (BD Biosciences). Data were analyzed in Flowing Software version 2.5.1 (Flowing Software, http://www.uskonaskel.fi/flowingsoftware).

EcAlkB = molecular target: T3, EcAlkB (Escherichia coli, UniProt P05050); experiment: In vitro inhibition assay of demethylation activity (HPLC), AlkB; assay type: biochemical
T3 construct: made in house
Experimental: as §3

U87 cells [5] = experiment: Alamar Blue viability assay, U87; assay type: cell-based, human; details: 48 h of treatment
Experimental: as §2

HeLa cells [6] = experiment: Alamar Blue viability assay, HeLa; assay type: cell-based, human; details: 48 h of treatment
Experimental: as §1

FTO [7] = molecular target: T2, FTO; experiment: Thermal shift assay for ligand binding, FTO holo form; details: FTO holo form (2OG, Mn2+), 5 µM compound; holo form alone 52.8 ± 0.6 °C
Experimental: (§6) We tested the affinity of our newly synthesized anthraquinones, 7-chloroemodin and 5,7-dichloroemodin, (Fig. S13) for ALKBH3 and FTO and assessed their effect on the enzymatic activity of targeted proteins using the thermal shift assay (TSA). The thermodynamic parameters for thermal denaturation of both proteins were measured for their holo forms, in the presence of 2OG and Mn^2+, an analogue of Fe^2+.
(§7) The assay was developed previously to monitor ligand binding to AlkB[36]. Fluorescence experiments were performed using a Varian Cary Eclipse spectrofluorimeter. Emission was monitored at 345 nm (excitation at 280 nm) over a temperature range of 40-95 °C with heating rate of 1 °C/min. The protein samples were dissolved in HEPES buffer at pH 7.5 with 2 mM dithiotreitol (DTT) and 150 mM NaCl to a final concentration of 1.2 µM. The process of thermal unfolding was performed at a concentration of 5 µM of the tested compound, either in the presence or absence of cofactors (50 µM 2OG and 100 µM Mn(II)). The thermal unfolding of the holo form of the protein was always monitored and further used as the reference. All the calculations were performed using Origin 9.0 software, assuming the simplest model of two-state (Folded-Unfolded) transition.

HEK293 cells = experiment: Alamar Blue viability assay, HEK293; assay type: cell-based, human; details: 48 h of treatment
Experimental: as §1

ALKBH3 [8] = molecular target: T1, ALKBH3; experiment: Thermal shift assay for ligand binding, ALKBH3 holo form; details: ALKBH3 holo form (2OG, Mn2+), 5 µM compound; result in words
Experimental: as §6, §7

HeLa cells [9] = test system: HeLa cells; design: method as in ref 32 (Varela-Ramirez and co-workers 2011); details: ref 32 (Varela-Ramirez and co-workers 2011); cited from earlier work
U87 cells [10] = test system: U87 cells; design: method as in ref 14 (Li and co-workers 2016); details: ref 14 (Li and co-workers 2016); cited from earlier work
ALKBH3 [11] = test system: ALKBH3; design: method as in ref 14 (Li and co-workers 2016); details: ref 14 (Li and co-workers 2016); read-out: IC50 against ALKBH3; cited from earlier work
EUFA30 cells [12] = experiment: Flow cytometry Annexin V-FITC / propidium iodide, EUFA30; assay type: cell-based, human; details: EUFA30, 500 μM, 48 h
Experimental: as §4, §5

[13] = ALKBH3 100 nM, 3meC on TT(3meC)TT pentamer, 30 min 37 °C, read-out: IC50 (Enzyme: ALKBH3 100nM; Substrate: 3meC)
[14] = EcAlkB 100 nM, 3meC on TT(3meC)TT pentamer, 30 min 37 °C, read-out: IC50 (Enzyme: EcAlkB 100nM; Substrate: 3meC)

T3 sequence (P05050 whole entry): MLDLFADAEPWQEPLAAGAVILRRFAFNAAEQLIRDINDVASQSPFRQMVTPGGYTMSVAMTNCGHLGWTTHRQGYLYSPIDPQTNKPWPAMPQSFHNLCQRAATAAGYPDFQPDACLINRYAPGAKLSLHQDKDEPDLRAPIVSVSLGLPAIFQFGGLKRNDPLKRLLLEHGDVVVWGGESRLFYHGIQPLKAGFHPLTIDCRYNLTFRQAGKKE
T2 sequence (Q9C0B1 whole entry): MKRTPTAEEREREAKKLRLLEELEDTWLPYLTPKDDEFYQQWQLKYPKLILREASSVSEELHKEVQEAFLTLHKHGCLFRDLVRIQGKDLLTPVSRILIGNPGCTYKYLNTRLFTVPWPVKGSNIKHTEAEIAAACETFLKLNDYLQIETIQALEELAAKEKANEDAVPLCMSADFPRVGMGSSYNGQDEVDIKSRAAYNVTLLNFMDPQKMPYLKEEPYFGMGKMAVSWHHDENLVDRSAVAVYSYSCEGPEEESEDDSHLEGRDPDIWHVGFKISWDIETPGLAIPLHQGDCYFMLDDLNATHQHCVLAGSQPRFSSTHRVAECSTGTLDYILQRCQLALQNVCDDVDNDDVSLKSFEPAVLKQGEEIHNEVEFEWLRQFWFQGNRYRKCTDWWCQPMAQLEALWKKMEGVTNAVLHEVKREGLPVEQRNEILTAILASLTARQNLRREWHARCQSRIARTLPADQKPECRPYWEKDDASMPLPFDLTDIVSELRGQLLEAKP

| SMILES | IC50 (ALKBH3 [2]; [13]) [nM] | IC50 (FTO [3]) [µM] | IC50 (EcAlkB; [14]) [µM] | IC50 (BICR18 cells; Homo sapiens) [µM] | IC50 (EUFA30 cells [1]; Homo sapiens) [µM] | binding to ALKBH3 judged by increase of melting temperature (ALKBH3 [8]) | IC50 (EcAlkB) [µM] | IC50 (U87 cells [5]; Homo sapiens, U-87 MG) [µM] | IC50 (HeLa cells [6]; Homo sapiens, HeLa) [µM] | IC50 (HEK293 cells; Homo sapiens, HEK293) [µM] | other results |
| --- | --- | --- | --- | --- | --- | --- | --- | --- | --- | --- | --- |
| Cc1cc2c(c(O)c1Cl)C(=O)c1c(O)cc(O)cc1C2=O [7-Chloroemodin] | 116000 ± 7000 | 28.1 | 19.8 | – | – | – | – | – | – | – | IC50 (BICR18 cells): 99.5 µM; IC50 (EUFA30 cells [1]): 163 µM; number of necrotic HeLa cells (HeLa cells [4]; 25 μM): 18.8%; number of necrotic HeLa cells (HeLa cells [4]; 100 μM): 37.6%; IC50 (U87 cells [5]): 120 µM; IC50 (HeLa cells [6]): 33.8 µM; melting temperature of FTO-ligand complex (FTO [7]): 71.5 ± 0.2 °C; IC50 (HEK293 cells): 180 µM |
| O=C1c2cccc(O)c2C(=O)c2c(O)cc(CO)cc21 [Aloe-Emodin] | 8800 | 52 ± 12.6 | – | 57.5 | 380 | slightly more weakly | 230 ± 100 | > 1000 | 26 | > 1000 | cytotoxicity against U87 (U87 cells [5]): not cytotoxic; cytotoxicity against HEK293 (HEK293 cells): not cytotoxic |
| Cc1cc(O)c2c(c1)C(=O)c1cc(O)cc(O)c1C2=O [Emodin] | 540000 ± 160000 | 49.4 ± 19 | – | 81.1 | 138 | slightly more weakly | 520 ± 100 | 42.7 | 110 | – | – |
| Cc1c(Cl)c(O)c2c(c1Cl)C(=O)c1cc(O)cc(O)c1C2=O [5,7-Dichloroemodin] | 176000 ± 6000 | 42.1 ± 6.5 | 16.4 | – | – | slightly more weakly | – | – | – | – | IC50 (BICR18 cells): 39.8 µM; IC50 (EUFA30 cells [1]): 102 µM; number of necrotic HeLa cells (HeLa cells [4]; 25 μM): 69.2%; number of necrotic HeLa cells (HeLa cells [4]; 100 μM): 83.1%; IC50 (U87 cells [5]): 158 µM; IC50 (HeLa cells [6]): 10.6 µM; melting temperature of FTO-ligand complex (FTO [7]): 67.4 ± 0.1 °C; IC50 (HEK293 cells): 87.3 µM |
| [CH3][Sn]([Cl])([c]1ccccc1)[c]1ccccc1 [DPMT, diphenylmethyltin chloride] | – | – | – | – | – | – | – | – | – | – | necrosis on HeLa cells (HeLa cells [9]): more than 40 % of cells |
| Cc1c(C(=O)O)c(O)cc2c1C(=O)c1c(O)c([C@@H]3O[C@H](CO)[C@@H](O)[C@H](O)[C@H]3O)c(O)c(O)c1C2=O [Carminic Acid, Carminic acid] | 111000 ± 7000 | 25.3 ± 2.2 | 170 ± 70 | 305 | 311 | – | – | 258 | 387 | 219 | – |
| O=C(O)c1cc(O)c2c(c1)C(=O)c1cccc(O)c1C2=O [Rhein] | – | – | – | 89.4 | 423 | strongest ligand | 20.5 | > 1000 | 126 | 157 | cytotoxic effect against U87 cells (U87 cells [10]): did not found any cytotoxic effect; IC50 (ALKBH3 [11]): 5.3 µM; IC50 (ALKBH3 [2]; as printed in text in nM, 3meC substrate, read-out: IC50 against ALKBH3): 40 nM; increase of early apoptosis stage compared to untreated control (EUFA30 cells [12]): approximately 2 fold; increase of late apoptosis compared to untreated control (EUFA30 cells [12]): 15 fold; increase of necrosis compared to untreated control (EUFA30 cells [12]): 11 fold |
